Where two headings read alike, the source gives them in different places.
What was measured:
[1] = In vivo rat micronucleus assay
[2] = system: primary acute myeloid leukemia (AML) blast cells; details: Cao 2020; cited from earlier work
[3] = Cytotoxicity in Vero cells by intracellular ATP; details: African green monkey
PBMCs plus B cells (BT) = assay: BioMAP profiling, BT system; type: cell-based; details: for inhibition at 0.01 µM: 10 nM; for inhibition at 0.1 µM: 100 nM
Method: (§1) The effect of PTC299 on cytokine production was assessed using BioMAP profiling (BioSeek, now part of Eurofins). The BioMAP system is comprised of complex co-cultures of primary peripheral blood mononuclear cells (PBMCs) with other cell types including B cells, fibroblasts, and endothelial cells allowing for the measurement of physiologically relevant biomarker readouts of the activity of a compound. Using this system, cytokine production was evaluated in the following models of primary cell disease models: • Peripheral blood mononuclear cells (PBMCs) plus venular endothelial cells (sAg) • PBMCs plus B cells (BT) • PBMCs plus fibroblasts (HDFSAg) • TH2 cells plus venular endothelial cells (/TH2).
(§2) Abbreviations in Table 4: BCR, B-cell receptor; BT System, co-culture of CD19+ B cells and PBMC that utilizes BCR stimulation and sub-mitogenic TCR stimulation; HDFSAg system, co-culture of human primary dermal fibroblasts and PBMC that is stimulated with sub-mitogenic TCR levels; IL, interleukin; PBMC, Peripheral Blood Mononuclear Cell; SAg system, co-culture of endothelial cells and PBMC stimulated with mitogenic levels of TCR ligands; TCR, T-cell receptor; /TH2 system, co-culture of endothelial cells and Th2 blasts stimulated with TCR ligands and cytokines; Th2, T helper type 2; VEGF, vascular endothelial growth factor.

SARS-CoV-2 USA-WA1/2020 = assay: PTC299 and remdesivir alone or combined, SARS-CoV-2 titer in Vero cells (TCID50); type: cell-based; details: 24 hours post infection
Poliovirus = assay: microbe, parasite or virus in culture; type: cell-based; details: Enterovirus C, HeLa, read-out: EC50 Poliovirus
[4] = Single- and repeat-dose toxicology studies in dogs
DHODH [5] = assay: Study PTC299-ONC-007-NF2: serum DHO and VEGF in neurofibromatosis type 2 patients; details: 100 mg BID
Ebola virus = assay: microbe, parasite or virus in culture; type: cell-based; details: Zaire ebolavirus, Vero, read-out: EC50 Ebola virus
[6] = system: Chinese hamster ovary cells
[7] = Single- and repeat-dose toxicology studies in rats
[8] = system: PBMCs plus fibroblasts (HDFSAg); assay: BioMAP profiling, HDFSAg system; type: cell-based; details: Homo sapiens
Method: as §1, §2

DHODH [9] = assay: Rhesus monkey single oral dose PD (plasma DHO); type: in vivo, Rhesus monkeys; details: after single oral 10 mg/kg dose of PTC299, Rhesus monkey
Method: FIG. 10 is a plot of PTC299 plasma concentration (µg/mL) vs hours of plasma dihydroorotate (DHO) and PTC299 concentrations after a single dose of PTC299 was administered to a single monkey.
The dosing regimen used in the current study was also supported by experiments performed in Rhesus monkeys. Monkeys were given a single oral 10 mg/kg dose of PTC299. The DHO plasma level increased after dosing, peaked at 24 hours and then decreased, as illustrated in FIG. 10. […] The AUC for PTC299 is consistent with that observed in the healthy volunteer study PTC299-ONC-002-HV indicating this exposure would result in inhibition of DHODH and supports the use of the 200 mg BID dosing regimen in the current study.

[10] = Bacterial mutagenicity (Ames) test
[11] = Study PTC299-ONC-007-NF2: PTC299 plasma level; details: human, oral, 100 mg BID
[12] = read-out: % Inhibition s-IL-17F

## COc1ccc([C@H]2c3[nH]c4ccc(Cl)cc4c3CCN2C(=O)Oc2ccc(Cl)cc2)cc1 [PTC299, 4-chlorophenyl (S)-6-chloro-1-(4-methoxyphenyl)-1,3,4,9-tetrahydro-2H-pyrido[3,4-b]indole-2-carboxylate]
[1]
  in vivo rat micronucleus assay: negative
[2]
  effect on primary AML blast cells: caused a G1/S cell-cycle arrest, inhibition of proliferation, and cell death
[3]
  CC50 at 48 h: > 10 µM
PBMCs plus B cells (BT); read-out: % Inhibition s-IL-6
  inhibition at 0.01 µM: 53%
  inhibition at 0.1 µM: 72%
PBMCs plus B cells (BT); [12]
  inhibition at 0.01 µM: 58%
  inhibition at 0.1 µM: 74%
PBMCs plus B cells (BT); read-out: % Inhibition sIL-17A
  inhibition at 0.01 µM: 68%
  inhibition at 0.1 µM: 83%
PBMCs plus B cells (BT); read-out: % Inhibition sIgG
  inhibition at 0.01 µM: 97%
  inhibition at 0.1 µM: 98%
PBMCs plus B cells (BT); read-out: % Inhibition sTNFa
  inhibition at 0.01 µM: 49%
  inhibition at 0.1 µM: 66%
PBMCs plus B cells (BT); B-cell, read-out: % Inhibition B cell proliferation
  inhibition at 0.1 µM: 31%
SARS-CoV-2 USA-WA1/2020; PTC299 250 nM
  reduction in SARS-CoV-2 titer: 96%
SARS-CoV-2 USA-WA1/2020; PTC299 500 nM
  reduction in SARS-CoV-2 titer: 98%
Poliovirus
  EC50: 0.6 nM
[4]; dogs dosed through 28 days
  alanine aminotransferase, aspartate aminotransferase, and total bilirubin: no increases
  histopathologic findings in the liver: no histopathologic findings in the liver
[4]; dogs, toxicology studies
  PTC299-related mortality: No PTC299-related mortality was observed
DHODH [5]; 8 weeks versus pre-dose
  serum VEGF levels: significantly reduced after 8 weeks of treatment
DHODH [5]; post-dose versus pre-dose
  serum DHO levels: elevated at 8 or 16 weeks
Ebola virus
  EC50: 9 nM
[6]
  chromosomal aberration assay: negative
[7]; rats dosed through 28 days
  alanine aminotransferase, aspartate aminotransferase, and total bilirubin: no increases
  histopathologic findings in the liver: no histopathologic findings in the liver
[7]; rats, toxicology studies
  PTC299-related mortality: No PTC299-related mortality was observed
[8]; read-out: % Inhibition sVEGF
  inhibition at 0.001 µM: 90%
  inhibition at 0.01 µM: 84%
  inhibition at 0.1 µM: 60%
[8]; HDFSAg, 1 nM, read-out: % Inhibition sIL-6
  inhibition at 0.001 µM: 33%
[8]; HDFSAg, 1 nM, read-out: % Inhibition sIL-17F
  inhibition at 0.001 µM: 46%
[8]; HDFSAg, 10 nM, read-out: % Inhibition IL-8
  inhibition at 0.01 µM: 25%
[8]; HDFSAg, 10 nM, read-out: % Inhibition sIL-2
  inhibition at 0.01 µM: 47%
[8]; HDFSAg, 10 nM, read-out: % Inhibition sIL-6
  inhibition at 0.01 µM: 91%
[8]; HDFSAg, 10 nM, read-out: % Inhibition sIL-10
  inhibition at 0.01 µM: 73%
[8]; HDFSAg, 10 nM, read-out: % Inhibition sIL-17A
  inhibition at 0.01 µM: 57%
[8]; HDFSAg, 10 nM, read-out: % Inhibition sIL-17F
  inhibition at 0.01 µM: 86%
[8]; HDFSAg, 100 nM, read-out: % Inhibition IL-8
  inhibition at 0.1 µM: 44%
[8]; HDFSAg, 100 nM, read-out: % Inhibition MCP-1
  inhibition at 0.1 µM: 33%
[8]; HDFSAg, 100 nM, read-out: % Inhibition MMP-1
  inhibition at 0.1 µM: 23%
[8]; HDFSAg, 100 nM, read-out: % Inhibition sIL-2
  inhibition at 0.1 µM: 68%
[8]; HDFSAg, 100 nM, read-out: % Inhibition sIL-6
  inhibition at 0.1 µM: 96%
[8]; HDFSAg, 100 nM, read-out: % Inhibition sIL-10
  inhibition at 0.1 µM: 81%
[8]; HDFSAg, 100 nM, read-out: % Inhibition sIL-17A
  inhibition at 0.1 µM: 74%
[8]; HDFSAg, 100 nM, read-out: % Inhibition sIL-17F
  inhibition at 0.1 µM: 83%
[8]; HDFSAg, 100 nM, read-out: % Inhibition sTNFa
  inhibition at 0.1 µM: 35%
DHODH [9]
  AUC of plasma DHO: 71.4 µg·h/mL
[10]
  bacterial mutagenicity (Ames) test: negative
[11]
  concentration at 4 h: 1900 ng/mL
